Data taken from patent publication EP2776398B1, “SUBSTITUTED PYRAZOLYL-BASED UREA DERIVATIVES AS VANILLOID RECEPTOR LIGANDS” (Medifron DBT Inc., priority 2011, dated 2013).

target: T1, vanilloid receptor 1 (VR1/TRPV1 receptor) (Homo sapiens, UniProt Q8NER1); assay: Functional testing on vanilloid receptor 1: FLIPR Ca2+ influx assay against capsaicin (Cap) in transfected CHO K1 cells (pharmacological method II); assay type: cell-based; details: @ 5µM; human VR1 in CHO K1 cells; capsaicin; relative to maximum inhibition with 10 µM capsazepine; read-out: inhibition (as a percentage), printed in column (f) Ki (human being) [nM] Cap; for (f) Ki (human being) [nM] Cap: 100 nM capsaicin
T1 construct: expressed in transfected cells; host or cells: CHO K1 cells (ECACC), stably transfected
Text: […]

T1 sequence (Q8NER1 whole entry): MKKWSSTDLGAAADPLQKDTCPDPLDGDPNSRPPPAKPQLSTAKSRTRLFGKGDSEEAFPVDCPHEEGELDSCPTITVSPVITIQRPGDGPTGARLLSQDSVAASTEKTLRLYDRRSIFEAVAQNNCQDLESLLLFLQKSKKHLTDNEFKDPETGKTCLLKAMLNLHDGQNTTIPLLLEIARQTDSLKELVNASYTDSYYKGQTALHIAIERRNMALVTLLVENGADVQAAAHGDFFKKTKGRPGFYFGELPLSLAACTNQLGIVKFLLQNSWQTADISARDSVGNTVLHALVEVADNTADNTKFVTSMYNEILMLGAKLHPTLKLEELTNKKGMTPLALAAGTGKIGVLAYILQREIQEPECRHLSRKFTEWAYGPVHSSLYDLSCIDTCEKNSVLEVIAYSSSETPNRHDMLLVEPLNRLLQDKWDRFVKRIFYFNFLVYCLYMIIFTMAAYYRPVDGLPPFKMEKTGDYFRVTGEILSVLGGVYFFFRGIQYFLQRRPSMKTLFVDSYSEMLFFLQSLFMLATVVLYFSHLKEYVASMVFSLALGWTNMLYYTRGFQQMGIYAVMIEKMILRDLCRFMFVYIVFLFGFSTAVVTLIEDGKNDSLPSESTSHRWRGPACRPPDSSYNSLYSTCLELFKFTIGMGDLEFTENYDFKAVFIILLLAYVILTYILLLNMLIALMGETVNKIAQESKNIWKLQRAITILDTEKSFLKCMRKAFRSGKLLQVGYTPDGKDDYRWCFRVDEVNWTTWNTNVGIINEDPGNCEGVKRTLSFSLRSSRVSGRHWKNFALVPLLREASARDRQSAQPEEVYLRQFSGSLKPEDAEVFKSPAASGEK

inhibition at 5 µM | SMILES
53% | N#Cc1cccc(-n2nc(C(F)(F)F)cc2CNC(=O)Nc2ccc(CO)c(F)c2)c1 [A85, 1-[[2-(3-Cyano-phenyl)-5-(trifluoromethyl)-2H-pyrazol-3-yl]-methyl]-3-[3-fluoro-4-(hydroxymethyl)-phenyl]-urea]

same assay, conditions: read-out: (f) Ki (human being) [nM] Cap

Ki | SMILES
9 nM | Cc1cccc(-n2nc(C(F)(F)F)cc2CNC(=O)Nc2ccc(CO)c(F)c2)c1 [A70, 1-[3-Fluoro-4-(hydroxymethyl)-phenyl]-3-[[2-(m-tolyl)-5-(trifluoromethyl)-2H-pyrazol-3-yl]-methyl]-urea]
42 nM | Cc1ccc(-n2nc(C(F)(F)F)cc2CNC(=O)Nc2ccc(CO)c(F)c2)cc1 [A71, 1-[3-Fluoro-4-(hydroxymethyl)-phenyl]-3-[[2-(p-tolyl)-5-(trifluoromethyl)-2H-pyrazol-3-yl]-methyl]-urea]
14 nM | Cc1cccc(-n2nc(C(F)(F)F)cc2CNC(=O)Nc2ccc(CO)c(F)c2)c1C [A72, 1-[[2-(2,3-Dimethyl-phenyl)-5-(trifluoromethyl)-2H-pyrazol-3-yl]-methyl]-3-[3-fluoro-4-(hydroxymethyl)-phenyl]-urea]
27 nM | Cc1cc(C)cc(-n2nc(C(F)(F)F)cc2CNC(=O)Nc2ccc(CO)c(F)c2)c1 [A73, 1-[[2-(3,5-Dimethyl-phenyl)-5-(trifluoromethyl)-2H-pyrazol-3-yl]-methyl]-3-[3-fluoro-4-(hydroxymethyl)-phenyl]-urea]
44 nM | Cc1ccc(C)c(-n2nc(C(F)(F)F)cc2CNC(=O)Nc2ccc(CO)c(F)c2)c1 [A74, 1-[[2-(2,5-Dimethyl-phenyl)-5-(trifluoromethyl)-2H-pyrazol-3-yl]-methyl]-3-[3-fluoro-4-(hydroxymethyl)-phenyl]-urea]
19 nM | Cc1ccc(-n2nc(C(F)(F)F)cc2CNC(=O)Nc2ccc(CO)c(F)c2)cc1C [A75, 1-[[2-(3,4-Dimethyl-phenyl)-5-(trifluoromethyl)-2H-pyrazol-3-yl]-methyl]-3-[3-fluoro-4-(hydroxymethyl)-phenyl]-urea]
41 nM | Cc1cccc(-n2nc(C(F)(F)F)cc2CNC(=O)Nc2ccc(CO)c(F)c2)c1F [A76, 1-[3-Fluoro-4-(hydroxymethyl)-phenyl]-3-[[2-(2-fluoro-3-methyl-phenyl)-5-(trifluoromethyl)-2H-pyrazol-3-yl]-methyl]-urea]
19 nM | Cc1cc(F)cc(-n2nc(C(F)(F)F)cc2CNC(=O)Nc2ccc(CO)c(F)c2)c1 [A77, 1-[3-Fluoro-4-(hydroxymethyl)-phenyl]-3-[[2-(3-fluoro-5-methyl-phenyl)-5-(trifluoromethyl)-2H-pyrazol-3-yl]-methyl]-urea]
11 nM | Cc1cc(-n2nc(C(F)(F)F)cc2CNC(=O)Nc2ccc(CO)c(F)c2)ccc1Cl [A78, 1-[[2-(4-Chloro-3-methyl-phenyl)-5-(trifluoromethyl)-2H-pyrazol-3-yl]-methyl]-3-[3-fluoro-4-(hydroxymethyl)-phenyl]-urea]
20 nM | CCOc1ccc(-n2nc(C(F)(F)F)cc2CNC(=O)Nc2ccc(CO)c(F)c2)cc1C [A79, 1-[[2-(4-Ethoxy-3-methyl-phenyl)-5-(trifluoromethyl)-2H-pyrazol-3-yl]-methyl]-3-[3-fluoro-4-(hydroxymethyl)-phenyl]-urea]
7 nM | Cc1cc(-n2nc(C(F)(F)F)cc2CNC(=O)Nc2ccc(CO)c(F)c2)ccc1F [A80, 1-[3-Fluoro-4-(hydroxymethyl)-phenyl]-3-[[2-(4-fluoro-3-methyl-phenyl)-5-(trifluoromethyl)-2H-pyrazol-3-yl]-methyl]-urea]
21 nM | Cc1cc(-n2nc(C(F)(F)F)cc2CNC(=O)Nc2ccc(CO)c(F)c2)ccc1C#N [A81, 1-[[2-(4-Cyano-3-methyl-phenyl)-5-(trifluoromethyl)-2H-pyrazol-3-yl]-methyl]-3-[3-fluoro-4-(hydroxymethyl)-phenyl]-urea]
2 nM | CC(C)c1cccc(-n2nc(C(F)(F)F)cc2CNC(=O)Nc2ccc(CO)c(F)c2)c1 [A82, 1-[3-Fluoro-4-(hydroxymethyl)-phenyl]-3-[[2-(3-isopropyl-phenyl)-5-(trifluoromethyl)-2H-pyrazol-3-yl]-methyl]-urea]
12 nM | O=C(NCc1cc(C(F)(F)F)nn1-c1cccc(C(F)F)c1)Nc1ccc(CO)c(F)c1 [A83, 1-[[2-[3-(Difluoro-methyl)-phenyl]-5-(trifluoromethyl)-2H-pyrazol-3-yl]-methyl]-3-[3-fluoro-4-(hydroxymethyl)-phenyl]-urea]
53 nM | COCc1cccc(-n2nc(C(F)(F)F)cc2CNC(=O)Nc2ccc(CO)c(F)c2)c1 [A84, 1-[3-Fluoro-4-(hydroxymethyl)-phenyl]-3-[[2-[3-(methoxymethyl)-phenyl]-5-(trifluoromethyl)-2H-pyrazol-3-yl]-methyl]-urea]
25 nM | CN(C)c1cccc(-n2nc(C(F)(F)F)cc2CNC(=O)Nc2ccc(CO)c(F)c2)c1 [A86, 1-[[2-(3-Dimethylamino-phenyl)-5-(trifluoromethyl)-2H-pyrazol-3-yl]-methyl]-3-[3-fluoro-4-(hydroxymethyl)-phenyl]-urea]
63 nM | COc1ccc(-n2nc(C(F)(F)F)cc2CNC(=O)Nc2ccc(CO)c(F)c2)cc1C [A87, 1-[3-Fluoro-4-(hydroxymethyl)-phenyl]-3-[[2-(4-methoxy-3-methyl-phenyl)-5-(trifluoromethyl)-2H-pyrazol-3-yl]-methyl]-urea]
86 nM | CCOc1ccc(C)cc1-n1nc(C(F)(F)F)cc1CNC(=O)Nc1ccc(CO)c(F)c1 [A88, 1-[[2-(2-Ethoxy-5-methyl-phenyl)-5-(trifluoromethyl)-2H-pyrazol-3-yl]-methyl]-3-[3-fluoro-4-(hydroxymethyl)-phenyl]-urea]
45 nM | O=C(NCc1cc(C(F)(F)F)nn1-c1cccc(Cl)c1Cl)Nc1ccc(CO)c(F)c1 [A89, 1-[[2-(2,3-Dichloro-phenyl)-5-(trifluoromethyl)-2H-pyrazol-3-yl]-methyl]-3-[3-fluoro-4-(hydroxymethyl)-phenyl]-urea]
27 nM | COc1c(Cl)cccc1-n1nc(C(F)(F)F)cc1CNC(=O)Nc1ccc(CO)c(F)c1 [A90, 1-[[2-(3-Chloro-2-methoxy-phenyl)-5-(trifluoromethyl)-2H-pyrazol-3-yl]-methyl]-3-[3-fluoro-4-(hydroxymethyl)-phenyl]-urea]
51 nM | COc1ccc(Cl)cc1-n1nc(C(F)(F)F)cc1CNC(=O)Nc1ccc(CO)c(F)c1 [A91, 1-[[2-(5-Chloro-2-methoxy-phenyl)-5-(trifluoromethyl)-2H-pyrazol-3-yl]-methyl]-3-[3-fluoro-4-(hydroxymethyl)-phenyl]-urea]
19 nM | COc1cc(C)cc(-n2nc(C(F)(F)F)cc2CNC(=O)Nc2ccc(CO)c(F)c2)c1 [A92, 1-[3-Fluoro-4-(hydroxymethyl)-phenyl]-3-[[2-(3-methoxy-5-methyl-phenyl)-5-(trifluoromethyl)-2H-pyrazol-3-yl]-methyl]-urea]
18 nM | CCOc1cc(C)cc(-n2nc(C(F)(F)F)cc2CNC(=O)Nc2ccc(CO)c(F)c2)c1 [A93, 1-[[2-(3-Ethoxy-5-methyl-phenyl)-5-(trifluoromethyl)-2H-pyrazol-3-yl]-methyl]-3-[3-fluoro-4-(hydroxymethyl)-phenyl]-urea]
30 nM | COc1c(C)cccc1-n1nc(C(F)(F)F)cc1CNC(=O)Nc1ccc(CO)c(F)c1 [A94, 1-[3-Fluoro-4-(hydroxymethyl)-phenyl]-3-[[2-(2-methoxy-3-methyl-phenyl)-5-(trifluoromethyl)-2H-pyrazol-3-yl]-methyl]-urea]
